Data set [1] has as its target T1, Prolidase from porcine kidney (Sus scrofa, UniProt A0A5G2QQV1).
T1 construct: Prolidase from porcine kidney (ICN Biomedicals, Eschwege, Germany); purchased ICN Biomedicals, Eschwege, Germany; host or cells: porcine kidney
T1 sequence (A0A5G2QQV1 1-463): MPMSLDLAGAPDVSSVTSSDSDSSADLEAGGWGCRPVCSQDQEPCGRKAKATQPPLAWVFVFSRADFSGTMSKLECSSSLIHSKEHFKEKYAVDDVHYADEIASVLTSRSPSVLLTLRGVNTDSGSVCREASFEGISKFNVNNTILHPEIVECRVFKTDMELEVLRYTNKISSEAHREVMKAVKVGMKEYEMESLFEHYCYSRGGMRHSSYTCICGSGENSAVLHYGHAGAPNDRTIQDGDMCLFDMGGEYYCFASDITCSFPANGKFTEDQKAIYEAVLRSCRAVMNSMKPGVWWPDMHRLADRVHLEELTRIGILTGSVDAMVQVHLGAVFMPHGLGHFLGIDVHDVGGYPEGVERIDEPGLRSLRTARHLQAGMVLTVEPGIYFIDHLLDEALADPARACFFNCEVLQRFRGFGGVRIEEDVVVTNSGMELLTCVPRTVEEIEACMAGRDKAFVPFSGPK
In words: Cross reacting enzymes - prolidase. Type of data set: biochemical. Particulars: substrate Ile-Pro-OH, pH 7.6, read-out: IC50 against prolidase. On the procedure:
Prolidase (EC 3.4.13.9) was first described by Bergmann & Fruton (Bergmann, M. & Fruton, J S, 1937, J. Biol. Chem. 189-202). Prolidase releases the N-terminal amino acid from Xaa-Pro dipeptides and has a pH optimum between 6 and 9.
Prolidase from porcine kidney (ICN Biomedicals, Eschwege, Germany) was solved (1 mg/ml) in assay buffer (20 mM NH4(CH3COO)2, 3 mM MnCl2, pH 7.6). In order to get a fully active enzyme the solution was incubated for 60 min at room temperature.
450 μl glutaminyl pyrrolidine or glutaminyl thiazolidine in an concentration range of 5*10^−3 M-5*10^−7 M were admixed with 500 μl buffer solution (20 mM NH4(CH3COO)2, pH 7.6) and 250 μl Ile-Pro-OH (0.5 mM in the assay, mixture). The assay mixture was pre-incubated at 30° C. for 5 min. After pre-incubation, 75 μl Prolidase (1:10 diluted in assay buffer) were added and measurement was performed at 30° C. and λ=220 nm for 20 min using a UV/Vis photometer, UV1 (Thermo Spectronic, Cambridge, UK).
The IC 50-values were calculated using Graphit 4.0.15 (Erithacus Software, Ltd., UK).

Another data set concerns the target T2, plasma DPIV activity (Rattus norvegicus, UniProt P14740).
T2 construct: from tissue; host or cells: plasma of Wistar rats
In words: DPIV inhibiting activity after intravasal and oral administration to Wistar rats. Type of data set: in vivo. Particulars: rat. On the procedure:
Male Wistar rats (Shoe: Wist(Sho)) with a body weight ranging between 250 and 350 g were purchased from Tierzucht Schönwalde (Schönwalde, Germany).
Animals were single-caged under conventional conditions with controlled temperature (22±2° C.) on a 12/12 hours light/dark cycle (light on at 06:00 AM). Standard pelleted chow (ssniff® Soest, Germany) and tap water acidified with HCl were allowed ad libitum.
After ≧one week of adaptation at the housing conditions, catheters were implanted into the carotid artery of Wistar rats under general anaesthesia (i.p. injection of 0.25 ml/kg b.w. Rompun® [2%], BayerVital, Germany and 0.5 ml/kg b.w. Ketamin 10, Atarost GmbH & Co., Twistringen, Germany). The animals were allowed to recover for one week. The catheters were flushed with heparin-saline (100 IU/ml) three times per week. In case of catheter dysfunction, a second catheter was inserted into the contra-lateral carotid artery of the respective rat. After one week of recovery from surgery, this animal was reintegrated into the study. In case of dysfunction of the second catheter, the animal was withdrawn from the study. A new animal was recruited and the experiments were continued in the planned sequence, beginning at least 7 days after catheter implantation.
After overnight fasting, 100 μl samples of heparinised arterial blood were collected at −30, −5, and 0 min. […] In the case of oral administration, an additional volume of 1 ml saline was injected into the arterial catheter. In the case of infra-arterial administration, the catheter was immediately flushed with 30 μl saline and an additional 1 ml of saline was given orally via the feeding tube.
All blood samples were collected into ice cooled Eppendorf tubes (Eppendorf-Netheler-Hinz, Hamburg, Germany) filled with 10 μl 1M sodium citrate buffer (pH 3.0) for plasma DPIV activity measurement. Eppendorf tubes were centrifuged immediately (12000 rpm for 2 min, Hettich Zentrifuge EBA 12, Tuttlingen; Germany): The plasma fractions were stored on ice until analysis or were frozen at −20° C. until analysis. All plasma samples were labelled with the following data:
The assay mixture for determination of plasma DPIV activity consisted of 80 μl reagent and 20 μl plasma sample. […] The DPIV activity was expressed in mU/ml.
All parameters were analysed in a descriptive manner including mean and SD.

Data set [2] is described as follows: In vivo inactivation of glutaminyl thiazolidine after oral administration to Wistar rats. Particulars: plasma LC/MS. On the procedure:
Glutaminyl thiazolidine was administered to Wistar rats orally as described in example 9.
After application of placebo or glutaminyl thiazolidine, arterial blood samples were taken at 2.5, 5, 7.5, 10, 15, 20, 40, 60 and 120 min from the carotid catheter of the conscious unrestrained rats to determine the formation of degradation products of glutaminyl thiazolidine.
For analysis, simple solid phase extraction procedure on C18 cartridges was used to isolate the compounds of interest from the plasma. The extracts were analysed using reversed-phase liquid chromatography on Lichrospher 60 RP Select B column hyphenated with tandem mass spectrometry operating in the APCI positive mode. An internal standard method was used for quantification.

The test system of data set [3] is fatty (fa/fa) VDF Zucker rats. Briefly: Chronic oral treatment of fatty Zucker rats - fasting blood glucose. Particulars: 10 mg/kg oral gavage twice daily, 12 weeks. Type of data set: in vivo, rat. On the procedure: (§1) Animals were housed singly, on a 12 hour light/dark cycle (lights on at 6 am) and allowed access to standard rat food, and water ad libitum.
Every two days, body weight, morning and evening blood glucose, and food and water intake were assessed. Blood samples for glucose determination were acquired from tail bleeds, and measured using a SureStep glucose analyzer (Lifescan Canada Ltd., Burnaby).
(§2) Every four weeks from the start of the experiment, an oral glucose tolerance test (OGTT) was performed: animals were fasted for 18 hours following the 1700 h dosing and administered 1 g/kg glucose orally.

Data set [4] deals with fatty (fa/fa) VDF Zucker rats. Briefly: Chronic oral treatment of fatty Zucker rats - systolic blood pressure (tail-cuff). Conditions: 10 mg/kg oral gavage twice daily. It counts as in vivo, rat. On the procedure:
as §1
Systolic blood pressure was measured weekly using the tail-cuff procedure.

The test system of the next data set is F344 rats. Briefly: Chronic intragastric infusion via osmotic minipumps over two weeks - blood pressure. It counts as in vivo, rat. On the procedure: Reduced expression of the ectopeptidase DPIV and lack of DPIV-like activity in mutant F344 rats lacking DPIV enzymic activity and expression results in a lowered blood pressure. Mutant F344 substrains lacking DPIV enzymic activity and wild-type-like F344 were tested.

Another data set is described as follows: Circulating half-life. It counts as in vivo. Conditions: 18 hours following dosing. On the procedure: as §2
The target in data set [5] is T3, PepT1 (Oryctolagus cuniculus, UniProt P36836).
T3 sequence (P36836 1-707): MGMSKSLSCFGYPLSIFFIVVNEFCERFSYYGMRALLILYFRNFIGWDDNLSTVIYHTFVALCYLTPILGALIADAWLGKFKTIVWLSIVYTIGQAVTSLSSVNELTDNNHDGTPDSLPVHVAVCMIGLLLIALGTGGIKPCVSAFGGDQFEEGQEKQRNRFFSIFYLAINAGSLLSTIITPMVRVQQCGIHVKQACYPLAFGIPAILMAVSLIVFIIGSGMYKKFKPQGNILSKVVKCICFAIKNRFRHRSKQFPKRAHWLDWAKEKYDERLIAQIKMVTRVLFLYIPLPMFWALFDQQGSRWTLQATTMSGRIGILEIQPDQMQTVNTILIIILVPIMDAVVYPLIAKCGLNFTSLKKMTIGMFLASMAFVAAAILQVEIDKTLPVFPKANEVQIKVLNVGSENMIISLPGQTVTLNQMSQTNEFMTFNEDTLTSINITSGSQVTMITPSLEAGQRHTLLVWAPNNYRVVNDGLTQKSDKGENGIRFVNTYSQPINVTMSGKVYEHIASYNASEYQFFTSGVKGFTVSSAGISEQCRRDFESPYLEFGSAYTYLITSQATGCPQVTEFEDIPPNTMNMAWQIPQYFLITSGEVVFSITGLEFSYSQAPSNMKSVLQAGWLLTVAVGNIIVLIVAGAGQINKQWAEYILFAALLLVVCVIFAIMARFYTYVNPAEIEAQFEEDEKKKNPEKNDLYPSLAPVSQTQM
In words: Inhibition of binding of 3H-D-Phe-Ala to PepT1-expressing P. pastoris cells. Particulars: read-out: EC50: concentration inhibiting the binding of 3H-D-Phe-Ala to PepT1-expressing P. pastoris cells by 50%. An excerpt:
(§3) Side chain-modified glutamyl thiazolidines having a structure H-Glu(X)-Thia were synthesised, with polyethylene glycol or glycine oligomers of various chain lengths being used as X (see Method A of example for description of synthesis). The binding characteristics of those derivatives and their transportability by the peptide transporter PepT1 were investigated.

Data set [6] addresses T3, PepT1. In words: Transport characteristics at PepT1-expressing oocytes of X. leavis, two-electrode voltage clamp. It counts as cell-based.
Text: as §3
A general note: Two-electrode voltage clamp is typically applied to oocytes expressing channels or transporters.

Data set [7] deals with DPIV and DPIV-like enzymatic activity. In words: Inhibition of the DPIV-catalyzed hydrolysis of the incretins GIP1-42 and GLP-17-36 in vitro (pooled human serum, MALDI-TOF). Type of data set: biochemical. Conditions: 20 mM inhibitor; 30 mM peptide; 20% pooled serum; pH 7.6; 30° C.; 24 hours. An excerpt:
It is possible to suppress the in vitro hydrolysis of incretins caused by DPIV and DPIV-like enzymatic activity using purified enzyme or pooled human serum (FIG. 1).
Samples were cocrystallized using 2′,6′-dihydroxy-acetophenon as matrix and analyzed by MALDI-TOF-mass spectrometry. Spectra (FIG. 1) display accumulations of 250 single laser shots per sample.
In the control assays containing no inhibitor the incretins were almost completely degraded (FIGS. 1b and 1c, both bottom spectra).

In another data set the test system is Wistar-rats. In words: Insulin and blood glucose responses to glucose after i.v. administration of inhibitor. Type of data set: in vivo, rat.

SMILES strings stand for the structures. Structures can show the parent of a compound that is named as a salt. Where two headings read alike, the source gives them in different places.

T2 sequence (P14740 38-767 limits assumed): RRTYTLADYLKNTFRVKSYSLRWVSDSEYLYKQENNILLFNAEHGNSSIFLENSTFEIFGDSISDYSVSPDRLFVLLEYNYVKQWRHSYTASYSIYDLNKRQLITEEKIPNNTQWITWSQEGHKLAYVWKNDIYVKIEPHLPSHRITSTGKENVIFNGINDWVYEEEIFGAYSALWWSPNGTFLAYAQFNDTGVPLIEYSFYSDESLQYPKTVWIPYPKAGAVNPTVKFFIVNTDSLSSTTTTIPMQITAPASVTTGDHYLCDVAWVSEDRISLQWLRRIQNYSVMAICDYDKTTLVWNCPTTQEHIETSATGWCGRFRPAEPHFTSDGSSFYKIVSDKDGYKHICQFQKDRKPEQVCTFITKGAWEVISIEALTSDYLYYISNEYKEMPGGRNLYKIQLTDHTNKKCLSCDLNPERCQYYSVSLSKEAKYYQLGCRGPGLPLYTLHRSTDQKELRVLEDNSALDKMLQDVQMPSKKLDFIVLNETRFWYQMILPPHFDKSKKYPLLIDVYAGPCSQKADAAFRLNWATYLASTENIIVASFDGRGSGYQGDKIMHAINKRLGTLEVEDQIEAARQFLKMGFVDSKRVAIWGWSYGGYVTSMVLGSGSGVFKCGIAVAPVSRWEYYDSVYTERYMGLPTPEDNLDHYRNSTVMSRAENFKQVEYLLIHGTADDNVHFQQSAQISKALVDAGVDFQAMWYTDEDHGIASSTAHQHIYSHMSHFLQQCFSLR
Procedure for Wistar-rats: The test group additionally obtained an infusion of the inhibitor of 0.75 M/min over 30 min experimental time (*). The control group received during the same time interval an infusion of inhibitor-free 0.9% saline solution. At starting time t=0 all animals were administered an i.d. glucose dose of 1 g/kg 40% dextrose solution (w/v). Blood samples were collected of all test animals in 10 min time intervals. Glucose was analyzed using whole blood (Lifescan One Touch II analyzer) while DPIV-activity and insulin concentration were analyzed in plasma. […] All data are presented as mean+/−s.e.m.

With `NC(=O)CCC(N)C(=O)N1CCSC1` (centres unmarked) [Gln-Thia, glutaminyl thiazolidine], in [1], the IC50 (as a rule, the point on the concentration scale where inhibition reaches its midpoint) is greater than 3000 µM. For the same compound, the inhibition – broadly, the drop in the measured response relative to a control, in per cent – at 100 mg/kg at plasma DPIV activity (iv, intra-vasal (intra-arterial) route, read-out: in vivo DPIV-inhibition at tmax, i.v.) stood at 88%; on plasma DPIV activity (oral, read-out: in vivo DPIV-inhibition at tmax, p.o.), 71%. Besides, the “degradation of the compound in vivo” value in data set [2] is on record as “degradation of the compound was found”. In data set [2], the degradation product result was “pyroglutaminyl thiazolidine”.
As to `CC[C@H](C)[C@H](N)C(=O)N1CCSC1` [Isoleucyl thiazolidine fumarate], the fasting blood glucose result in data set [3] was “dramatic reduction and almost normalization”. Besides, in [4], the systolic blood pressure entry is recorded as “stabilization”. For the same compound, in the data set on F344 rats, the blood pressure result was “dose-dependently reduced”. Besides, the “number of circulating half-lives equivalent to the 18 hours fasting period” value in “Circulating half-life” is on record as roughly 12 circulating half-lives.
As to `CCC(C)C(N)C(=O)N1CCSC1` (centres unmarked) [isoleucyl thiazolidine], the EC50 at PepT1 [5] amounted to 980 µM. Moreover, at PepT1 [6], the “Imax, inward currents generated by the transport” value is on record as 25 ± 8 nA. In addition, the “suppression of the enzyme-catalyzed hydrolysis of GIP1-42 and GLP-17-36” value in data set [7] is “complete suppression”. For the same compound, in the data set with Wistar-rats (0.1 mg per kg, versus untreated controls), the “circulating glucose concentration after intraduodenal (i.d.) glucose” value is listed as “more rapid reduction”. For the same compound, in the data set with Wistar-rats (inhibitor-treated), the “effect on circulating glucose after i.v. administration of the same amount of glucose” value is given as “no comparable effect”.

Source of the values: US20070207946A1, “Dipeptidyl peptidase IV inhibitors and their uses for lowering blood pressure levels” (priority 2001, published 2007).
